Earlier results as cited in article PMC4552746, “Conformational Properties of Seven Toac-Labeled Angiotensin I Analogues Correlate with Their Muscle Contraction Activity and Their Ability to Act as ACE Substrates” (PLoS ONE, 2015).

System: thoracic rabbit aorta strips
Design: method as in earlier work
Details: ref 48 (Cordopatis and Theodoropoulos)

[1-Aib]-angiotensin II [Aib^1-AngII]
Potency, in words: displays high potency
